Laboratory results reported in ChEMBL document CHEMBL1201862, “PubChem BioAssay data set” (2004).
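Method: 48-hour compound exposure of cells in 96-well plates, five concentrations, linear interpolation of endpoints. GI50 is the concentration that inhibits growth by half.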 Active and inactive are the calls of the source. No stated cut-off is given here; in the data, active = GI50 up to about 1.1 µM and inactive = higher.

Legend:
Assay in all cases: NCI anticancer screen, dose series, 48 h
SF-268 = test system: SF-268
BT-549 = test system: BT-549
DU-145 = test system: DU-145
MDA-N = test system: MDA-N
SK-MEL-5 = test system: SK-MEL-5
KM12 = test system: KM12
OVCAR-8 = test system: OVCAR-8
HL-60 = test system: HL-60
K562 = test system: K562
TK-10 = test system: TK-10
NCI/ADR-RES = test system: NCI/ADR-RES
Hs-578T = test system: Hs-578T
UACC-62 = test system: UACC-62
EKVX = test system: EKVX
NCI-H23 = test system: NCI-H23
NCI-H460 = test system: NCI-H460
NCI-H522 = test system: NCI-H522
ACHN = test system: ACHN
UACC-257 = test system: UACC-257
Malme-3M = test system: Malme-3M
OVCAR-4 = test system: OVCAR-4
PC-3 = test system: PC-3
SNB-19 = test system: SNB-19
A549 = test system: A549
HT-29 = test system: HT-29
HOP-62 = test system: HOP-62
CAKI-1 = test system: CAKI-1
LOX IMVI = test system: LOX IMVI
T47D = test system: T47D
SK-MEL-28 = test system: SK-MEL-28
HOP-92 = test system: HOP-92
UO-31 = test system: UO-31
OVCAR-3 = test system: OVCAR-3
MOLT-4 = test system: MOLT-4
786-0 = test system: 786-0
HCC 2998 = test system: HCC 2998
HCT-15 = test system: HCT-15
MCF7 = test system: MCF7
SW-620 = test system: SW-620
IGROV-1 = test system: IGROV-1
SF-295 = test system: SF-295
RXF 393 = test system: RXF 393
HCT-116 = test system: HCT-116
SR = test system: SR
U-251 = test system: U-251
SK-MEL-2 = test system: SK-MEL-2
M14 = test system: M14
NCI-H226 = test system: NCI-H226
SK-OV-3 = test system: SK-OV-3
A498 = test system: A498
RPMI-8226 = test system: RPMI-8226
MDA-MB-231 = test system: MDA-MB-231
SNB-75 = test system: SNB-75
SN12C = test system: SN12C
COLO 205 = test system: COLO 205
MDA-MB-435 = test system: MDA-MB-435
SF-539 = test system: SF-539
CCRF-CEM = test system: CCRF-CEM
OVCAR-5 = test system: OVCAR-5
KM-20L2 = test system: KM-20L2
DMS-273 = test system: DMS-273
M19-MEL = test system: M19-MEL
LXFL 529 = test system: LXFL 529
SNB-78 = test system: SNB-78
DLD-1 = test system: DLD-1
DMS-114 = test system: DMS-114
HOP-18 = test system: HOP-18

## O=C1C2C3C4C1C1C2[C@H](OCc2ccccc2)C3C1[C@H]4OCc1ccccc1 (stereo not given in full)
SF-268
  GI50: 60.5 µM (inactive)
BT-549
  GI50: > 100 µM (inactive)
DU-145
  GI50: > 100 µM (inactive)
MDA-N
  GI50: > 100 µM (inactive)
SK-MEL-5
  GI50: 36.3 µM (inactive)
KM12
  GI50: 52.2 µM (inactive)
OVCAR-8
  GI50: > 100 µM (inactive)
HL-60
  GI50: 22.5 µM (inactive)
K562
  GI50: > 100 µM (inactive)
TK-10
  GI50: > 100 µM (inactive)
NCI/ADR-RES
  GI50: 19.7 µM (inactive)
Hs-578T
  GI50: 20.5 µM (inactive)
UACC-62
  GI50: 41.5 µM (inactive)
EKVX
  GI50: 27.6 µM (inactive)
NCI-H23
  GI50: 48.8 µM (inactive)
NCI-H460
  GI50: 49.8 µM (inactive)
NCI-H522
  GI50: 11.2 µM (inactive)
ACHN
  GI50: 47.6 µM (inactive)
UACC-257
  GI50: 33 µM (inactive)
Malme-3M
  GI50: 76 µM (inactive)
OVCAR-4
  GI50: 70.3 µM (inactive)
PC-3
  GI50: 36.1 µM (inactive)
SNB-19
  GI50: 67.9 µM (inactive)
A549
  GI50: 40.9 µM (inactive)
HT-29
  GI50: 15.2 µM (inactive)
HOP-62
  GI50: 73.3 µM (inactive)
CAKI-1
  GI50: 41.7 µM (inactive)
LOX IMVI
  GI50: 40.4 µM (inactive)
T47D
  GI50: 34.4 µM (inactive)
SK-MEL-28
  GI50: 40.2 µM (inactive)
HOP-92
  GI50: 17 µM (inactive)
UO-31
  GI50: 55.8 µM (inactive)
OVCAR-3
  GI50: 60.5 µM (inactive)
MOLT-4
  GI50: 50.1 µM (inactive)
786-0
  GI50: > 100 µM (inactive)
HCC 2998
  GI50: 31.3 µM (inactive)
HCT-15
  GI50: 22.2 µM
MCF7
  GI50: > 100 µM (inactive)
SW-620
  GI50: 46 µM (inactive)
IGROV-1
  GI50: > 100 µM (inactive)
SF-295
  GI50: > 100 µM (inactive)
RXF 393
  GI50: 31.8 µM (inactive)
HCT-116
  GI50: 50.5 µM (inactive)
SR
  GI50: 19.1 µM (inactive)
U-251
  GI50: 77.3 µM (inactive)
SK-MEL-2
  GI50: 51.2 µM (inactive)
M14
  GI50: 51.8 µM (inactive)
NCI-H226
  GI50: 76.9 µM (inactive)
SK-OV-3
  GI50: > 100 µM (inactive)
A498
  GI50: > 100 µM (inactive)
RPMI-8226
  GI50: 36.6 µM (inactive)
MDA-MB-231
  GI50: 82 µM (inactive)
SNB-75
  GI50: 38.9 µM (inactive)
SN12C
  GI50: > 100 µM (inactive)
COLO 205
  GI50: 28.9 µM (inactive)
MDA-MB-435
  GI50: 61.4 µM (inactive)
SF-539
  GI50: 75.2 µM (inactive)
CCRF-CEM
  GI50: > 100 µM (inactive)
OVCAR-5
  GI50: 24.3 µM (inactive)

## Cc1ccc(S(=O)(=O)NCCCN(CCCNS(=O)(=O)c2ccc(C)cc2)S(=O)(=O)c2ccc(C)cc2)cc1
SF-268
  GI50: > 100 µM (inactive)
KM12
  GI50: 89.1 µM (inactive)
OVCAR-8
  GI50: > 100 µM (inactive)
HL-60
  GI50: > 100 µM (inactive)
K562
  GI50: > 100 µM (inactive)
TK-10
  GI50: > 100 µM (inactive)
KM-20L2
  GI50: > 100 µM (inactive)
UACC-62
  GI50: > 100 µM (inactive)
NCI-H23
  GI50: > 100 µM (inactive)
NCI-H460
  GI50: > 100 µM (inactive)
DMS-273
  GI50: > 100 µM (inactive)
NCI-H522
  GI50: > 100 µM (inactive)
ACHN
  GI50: > 100 µM (inactive)
UACC-257
  GI50: > 100 µM (inactive)
Malme-3M
  GI50: > 100 µM (inactive)
SNB-19
  GI50: > 100 µM (inactive)
A549
  GI50: > 100 µM (inactive)
M19-MEL
  GI50: > 100 µM (inactive)
HOP-62
  GI50: > 100 µM (inactive)
LOX IMVI
  GI50: > 100 µM (inactive)
SK-MEL-28
  GI50: > 100 µM (inactive)
LXFL 529
  GI50: > 100 µM (inactive)
UO-31
  GI50: > 100 µM (inactive)
OVCAR-3
  GI50: > 100 µM (inactive)
MOLT-4
  GI50: > 100 µM (inactive)
786-0
  GI50: > 100 µM (inactive)
HCC 2998
  GI50: > 100 µM (inactive)
HCT-15
  GI50: > 100 µM
SNB-78
  GI50: > 100 µM (inactive)
SW-620
  GI50: > 100 µM (inactive)
IGROV-1
  GI50: > 100 µM (inactive)
SF-295
  GI50: > 100 µM (inactive)
RXF 393
  GI50: > 100 µM (inactive)
HCT-116
  GI50: > 100 µM (inactive)
SR
  GI50: 69.7 µM (inactive)
U-251
  GI50: > 100 µM (inactive)
M14
  GI50: > 100 µM (inactive)
NCI-H226
  GI50: > 100 µM (inactive)
SK-OV-3
  GI50: > 100 µM (inactive)
RPMI-8226
  GI50: > 100 µM (inactive)
SNB-75
  GI50: > 100 µM (inactive)
DLD-1
  GI50: > 100 µM (inactive)
SN12C
  GI50: > 100 µM (inactive)
COLO 205
  GI50: > 100 µM (inactive)
SF-539
  GI50: > 100 µM (inactive)
CCRF-CEM
  GI50: > 100 µM (inactive)
DMS-114
  GI50: > 100 µM (inactive)

## CCCCCCN(CCCCCC)C(=O)Cc1c2n(c3ccccc13)Cc1ccccc1-2
SF-268
  GI50: 99.1 µM (inactive)
SK-MEL-5
  GI50: 41.4 µM (inactive)
KM12
  GI50: 42.1 µM (inactive)
OVCAR-8
  GI50: 44.8 µM (inactive)
HL-60
  GI50: 19.8 µM (inactive)
K562
  GI50: 33.4 µM (inactive)
TK-10
  GI50: 51.8 µM (inactive)
KM-20L2
  GI50: > 100 µM (inactive)
UACC-62
  GI50: > 100 µM (inactive)
EKVX
  GI50: 69.8 µM (inactive)
NCI-H23
  GI50: 49.8 µM (inactive)
NCI-H460
  GI50: 63.1 µM (inactive)
DMS-273
  GI50: 36.9 µM (inactive)
NCI-H522
  GI50: 32.5 µM (inactive)
ACHN
  GI50: 50.2 µM (inactive)
UACC-257
  GI50: 49.7 µM (inactive)
Malme-3M
  GI50: 88.9 µM (inactive)
OVCAR-4
  GI50: 79.8 µM (inactive)
SNB-19
  GI50: 80.7 µM (inactive)
A549
  GI50: 52.8 µM (inactive)
HT-29
  GI50: 62.8 µM (inactive)
M19-MEL
  GI50: 60.3 µM (inactive)
HOP-62
  GI50: 86.7 µM (inactive)
CAKI-1
  GI50: > 100 µM (inactive)
LOX IMVI
  GI50: 69.8 µM (inactive)
SK-MEL-28
  GI50: > 100 µM (inactive)
HOP-92
  GI50: 10.6 µM (inactive)
LXFL 529
  GI50: 37.4 µM (inactive)
UO-31
  GI50: 44.6 µM (inactive)
OVCAR-3
  GI50: 43.4 µM (inactive)
MOLT-4
  GI50: 33.3 µM (inactive)
786-0
  GI50: 85.1 µM (inactive)
HCC 2998
  GI50: 53.7 µM (inactive)
HCT-15
  GI50: 37.4 µM
SNB-78
  GI50: 71.8 µM (inactive)
SW-620
  GI50: 49.5 µM (inactive)
SF-295
  GI50: 56.8 µM (inactive)
RXF 393
  GI50: 26.5 µM (inactive)
HOP-18
  GI50: > 100 µM (inactive)
HCT-116
  GI50: 29.6 µM (inactive)
SR
  GI50: 14.9 µM (inactive)
U-251
  GI50: 34.4 µM (inactive)
SK-MEL-2
  GI50: 49.3 µM (inactive)
M14
  GI50: 44.8 µM (inactive)
NCI-H226
  GI50: > 100 µM (inactive)
SK-OV-3
  GI50: > 100 µM (inactive)
RPMI-8226
  GI50: 28.8 µM (inactive)
SNB-75
  GI50: > 100 µM (inactive)
DLD-1
  GI50: 33.7 µM (inactive)
SN12C
  GI50: 52.5 µM (inactive)
COLO 205
  GI50: 58.5 µM (inactive)
SF-539
  GI50: > 100 µM (inactive)
CCRF-CEM
  GI50: 28.1 µM (inactive)
DMS-114
  GI50: 28.6 µM (inactive)
